Assay results taken from patent US20160279187A1, “CALPAIN INHIBITORS FOR IBD AND COLORECTAL CANCER TREATMENT” (UNIVERSITY OF HAWAII, priority 2013, published 2016).
Where a SMILES comes first, the peptide text is derived from it. The star is where a group is joined. Cbz = O=C(OCc1ccccc1)*; CH2F = FC*

How the values were obtained:
[1] = test system: IκB / NFκB in HT-29 cells; experiment: IκB and nuclear NFκB western blot, HT-29; type: cell-based, human; settings: HT-29, vs DMSO
Description: Bone marrow derived macrophages (BMDM) were prepared as previously described by methods known to those skilled in the art. On day 5 of culture, 2×10^6 BMDM were seeded in 6-well plates and the following day were primed for 18 h with TNFα (20 ng/mL), followed by 1 h stimulation with E. faecalis (1 μg/mL; ATCC). Stimulation with E. faecalis was conducted in the presence of the zLLY-CH2F calpain-2 inhibitor (20 μg/mL) or DMSO as a control. Media was removed from treated BMDM, centrifuged at 300×g for 5 min and supernatent analyzed using the Cytometric Bead Array Mouse Inflammation Kit (BD Biosciences, San Jose, Calif.). Cytokine data were analyzed using Flowjo software (Ashland, Oreg.) and GraphPad Prism version 4.0 (GraphPad, La Jolla, Calif.). Cell pellets were lysed and analyzed for IκB and NFκB by Western blot as previously described (Miyazaki, T. et al. Journal of Atherosclerosis and Thrombosis 20, 228-237, 2013). […] Each day 4 wells were quantified using Celltiter MTS reagent (Promega) and the resulting signal was used to generate a proliferation curve. Calpain activity was measured using a Calpain activity assay kit (BioVision, Inc., Milpitas, Calif.) as previously described. Colons were harvested on day 4 and calpain activity measured. […]

μ-calpain = molecular target: T1, μ-calpain (Homo sapiens, UniProt P07384); settings: off-target; cited from earlier work
T1 sequence (P07384 1-714): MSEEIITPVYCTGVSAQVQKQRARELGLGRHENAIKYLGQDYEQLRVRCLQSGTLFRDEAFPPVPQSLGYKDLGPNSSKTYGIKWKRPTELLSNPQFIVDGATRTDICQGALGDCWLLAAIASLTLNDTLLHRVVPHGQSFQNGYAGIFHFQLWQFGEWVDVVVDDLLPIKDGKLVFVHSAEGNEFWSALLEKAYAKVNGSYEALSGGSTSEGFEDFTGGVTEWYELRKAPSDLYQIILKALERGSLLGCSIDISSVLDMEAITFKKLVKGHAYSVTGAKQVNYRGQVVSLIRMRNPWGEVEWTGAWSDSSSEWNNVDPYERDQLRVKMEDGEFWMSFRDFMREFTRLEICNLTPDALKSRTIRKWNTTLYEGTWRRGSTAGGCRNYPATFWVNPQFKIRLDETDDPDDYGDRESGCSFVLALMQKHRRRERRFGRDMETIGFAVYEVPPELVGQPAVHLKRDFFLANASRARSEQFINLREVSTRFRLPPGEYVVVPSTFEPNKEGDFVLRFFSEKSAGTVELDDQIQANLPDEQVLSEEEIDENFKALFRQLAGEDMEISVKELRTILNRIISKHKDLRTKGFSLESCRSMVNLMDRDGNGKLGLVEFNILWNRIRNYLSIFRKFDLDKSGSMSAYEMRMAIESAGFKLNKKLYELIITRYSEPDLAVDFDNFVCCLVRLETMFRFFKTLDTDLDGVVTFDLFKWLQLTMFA

In the case of `CC(C)C[C@H](NC(=O)OCc1ccccc1)C(=O)N[C@@H](CC(C)C)C(=O)N[C@@H](Cc1ccc(O)cc1)C(=O)CF` [zLLY-CH2F, Z-LLY-CH2F] (Cbz-Leu-Leu-Tyr-CH2F), the IκB degradation [1] is listed as “reduced”, the NFκB nuclear localization [1] is listed as “reduced” and the “inhibition of μ-calpain” value (μ-calpain) is listed as “not known to inhibit”.
